Results from US20250366472A1, “1-AMINOCYCLOPROPANE-1-CARBOXYLIC ACID OXIDASE INHIBITORS (ACO-I)” (Royal Holloway and Bedford New College, priority 2022, published 2025).
Read-outs that look alike come from different tables or passages of the source.

Assays:
[1] = test system: csA, cAR1, pspA, ecmA expression; assay: Developmental gene expression in D. discoideum by qPCR; format: cell-based; settings: 100 μM, 0 to 20 hours
Procedure: To provide quantitative analysis of the developmental effects of MyA, wild type cells were induced to develop on nitrocellulose filters for time periods between 0 and 20 hours, using cells under solvent only conditions, in the presence of MyA (100 μM), or in the presence of MyA and CEPA. Developmental gene expression associated with early aggregation (csA), […], and in late development (ecmA) were assessed using qPCR. […] Similar delays in peak gene expression were also seen for carA (peak 4 h), and pspA (peak 12 h), and ecmA (peak 20 h), following MyA treatment, and these delays were rescued by addition of exogenous ethylene. These experiments confirm a MyA-dependent delay in D. discoideum development that is rescued by exogenous ethylene application, consistent with a role for MyA in inhibiting ACO activity and slowing crop maturation.

D. discoideum WT cells = assay: D. discoideum multicellular development, block at mound stage; format: cell-based
Procedure: The effect of MyA on multicellular development of D. discoideum was measured. The MyA was tested at a concentration of 100 μM.
The effect of ACO loss on multicellular development was assessed. ACO-D. discoideum mutants were engineered and compared to standard wild type D. discoideum cells.

A. thaliana = A. thaliana root and hypocotyl extension after 6 days; format: in vivo; settings: for effect on root and hypocotyl growth: FIG. 6A; for concentration from which dose dependent effect on root/hypocotyl growth is seen: versus DMSO control, FIG. 6B; for potency compared to AIB: hypocotyl or root extension, from table 3
Procedure: In these experiments, A. thaliana seeds were germinated and grown in 24 h light conditions for 6 days and root and hypocotyl length were recorded (FIG. 6A and 6B).
The IC50 values for the root or hypocotyl extension after 6 days for 5,5-dimethyl-2-(2-phenylacetyl) cyclohexane-1,3-dione (ACOi-84-16-4), 3-[(2E)-3-(4-fluorophenyl)prop-2-enoyl]-4-hydroxy-6-methyl-2H-pyran-2-one (ACOi-74-12-16) and MyA, compared to known compounds AIB and POA are presented in table 3. Images of the plant growth and the root hairs are shown in FIG. 6B for 5,5-dimethyl-2-(2-phenylacetyl) cyclohexane-1,3-dione (ACOi-84-16-4) and 3-[(2E)-3-(4-fluorophenyl)prop-2-enoyl]-4-hydroxy-6-methyl-2H-pyran-2-one (ACOi-74-12-16) and FIG. 6A for MyA and comparably for AIB and POA.

D. discoideum cells = assay: Inhibition of D. discoideum unicellular growth (wild type); format: cell-based
Procedure: The unicellular growth rate and multicellular of D. discoideum cells on exposure to MyA was tested and the results are illustrated in FIG. 1 and FIG. 2.
D. discoideum cells were divided by binary fission in nutrient-rich media, initially with a lag phase (0-120 h), and then an exponential phase. The D. discoideum cells were then exposed to MyA at concentrations of 0 μm, 1 μm, 10 μm, 15 μm, 25 μm, 50 μm and 100 μm.

[2] = test system: ACO ablated D. discoideum cells (ACO-); assay: Growth sensitivity of ACO-mutant D. discoideum cells to MyA; format: cell-based
Text: The cell and developmental role of the D. discoideum ACO protein were investigated. FIG. 3C illustrates the resistance to the growth and developmental inhibitory effect of MyA on wild type D. discoideum cells (WT) and ACO ablated D. discoideum cells (ACO-).

ethylene production = assay: Ethylene production of D. discoideum cells, headspace GCMS; format: cell-based; settings: 500 μM
Procedure: Wild type cells in the presence or absence of MyA (500 μM), or ACO-cells were maintained in sealed small flasks with limited head space over 36 h, and headspace gas was taken at 6-hour intervals and analysed by GCMS.

barley seedlings = assay: Drought stress recovery of barley seedlings; format: in vivo; settings: 5 days growth, 9 days drought, 12 days watered
Procedure: (§1) The seeds of each plant were washed with 5% sodium hypochlorite for 15 minutes (with shaking at 120 rpm) and then washed three times in sterile distilled water. The seeds were placed on two layers of waterlogged 3 MM for ˜72 hours under lights at RT until hypocotyl emerged. 7-10 germinated seeds were incubated in sterile Magenta boxes containing 100 mL perlite per box, moistened with 60 ml sterile distilled water and autoclaved. The seeds were incubated in a growth cabinet with a 12 hour light/dark cycle at 22° C. until the first seedling reached approximately 5 cm height. This took approximately 4-5 days. The water was then replaced with 0.5×Hoagland solution with the test compounds (or DMSO for control samples) for 24 hour (Hoagland's No2 Basal salt mixture, Sigma, H2395, use 1.6 g/L in sterile water and autoclaved), and returned to growth cabinet. The media was then removed, the perlite was rinsed twice with sterile distilled water and the solution was replace with 35 ml 0.5 ×Hoaglands solution and returned to the growth cabinet for 24 hours.
The no drought sample was then grown in 0.5×Hoaglands solution and the solution was topped up daily.
The drought samples were exposed to drought conditions for 9 days by removing the media and returned to the growth cabinet. At recovery, 0.5×Hoaglands solution was added back to the drought sample Magenta boxes, up to the top of the perlite and this level was maintained during recovery. The plant recovery over time (up to 19 days post rescue) was recorded and the photographs from the end of the experiment are illustrated in FIG. 8, FIG. 9 and FIG. 11.
10 μM of 3-[(2E)-3-(4-fluorophenyl)prop-2-enoyl]-4-hydroxy-6-methyl-2H-pyran-2-one (labelled as 16B), 10 μM of 5,5-dimethyl-2-(2-phenylacetyl) cyclohexane-1,3-dione (labelled as 4B) and […] of AIB and 500 μM of POA were tested on barley seedlings.

Carnations = assay: Cut carnation flower senescence (flower size); format: in vivo; settings: for slowing of flower senescence versus control: 0.01 mM or 0.02 mM, flower size after 9 days; for performance versus POA and AIB: 0.01/0.02 mM versus POA 0.5/1 mM, AIB 5/10 mM
Procedure: Carnations were cut to approximately 5 cm long stems and placed in a solution wherein the solution comprised 5 mL water and either no additional components (control), 0.01 mM or 0.02 mM of 5,5-dimethyl-2-(2-phenylacetyl) cyclohexane-1,3-dione (labelled as 4B) or 3-[(2E)-3-(4-fluorophenyl)prop-2-enoyl]-4-hydroxy-6-methyl-2H-pyran-2-one (labelled as 16B) or 0.5 mM or 1 mM of POA or 10 mM or 5mM of AIB were added. The flower size coverage was measured and the petal shrinkage, or reduction in flower size, is used as an indicator of flower senescence.

rye seedlings = assay: Drought stress recovery of rye seedlings; format: in vivo; settings: 10 μM, 9 days drought
Procedure: as §1
The no drought sample was then grown in 0.5×Hoaglands solution and the solution was topped up daily. […]
The drought testing was repeated with rye seedlings and the results are shown in FIG. 11 wherein the data was measured following 5 days of growth, 9 days of drought and 19 days of recovery. […]

wheat seedlings = assay: Drought stress recovery of wheat seedlings; format: in vivo; settings: 10 μM, 9 days drought, 19 days recovery
Procedure: as §1, with “The media was then removed, the perlite was rinsed twice with sterile distilled water and the solution was replace with 35 ml 0.5 ×Hoaglands solution and returned to the growth cabinet for 24 hours.” left out
The drought samples were exposed to drought conditions for 9 days by removing the media and returned to the growth cabinet. […] The plant recovery over time (up to 19 days post rescue) was recorded and the photographs from the end of the experiment are illustrated in FIG. 8, FIG. 9 and FIG. 11.
The drought testing was repeated with wheat seedlings and the results are shown in FIGS. 9 and 10 wherein the data was measured following 5 days of growth, 9 days of drought and 19 days of recovery. […]

[3] = Arabidopsis thaliana, 144 h, Hypocotyl, 6 days, read-out: IC50 hypocotyl extension
[4] = Arabidopsis thaliana, 144 h, Root, 6 days, read-out: IC50 root extension
[5] = Hypocotyl, 6 days, read-out: IC50 hypocotyl extension

Structure (SMILES)	effect on root and hypocotyl growth (A. thaliana; 6 days)	IC50 (A. thaliana; [3]) [µM]	IC50 (A. thaliana; [4]) [µM]	recovery after drought (barley seedlings; 10 μM)	efficacy in development block model (D. discoideum WT cells; 100 μM)	concentration from which dose dependent effect on root/hypocotyl growth is seen (A. thaliana; 6 days) [μm]	potency compared to AIB (A. thaliana)	slowing of flower senescence versus control (Carnations)	performance versus POA and AIB (Carnations)	IC50 (A. thaliana; [5]) [µM]	also measured
CC1C(=O)C(C(=O)CCc2ccccc2)C(=O)C(C)(C)C1=O (centres unmarked) [MyA, 2,2,4-trimethyl-6-(3-phenylpropanoyl) cyclohexane-1,3,5-trione]	comparative reduction	59.4	53.3								peak expression of developmental genes (csA, carA, pspA, ecmA) [1]: delayed; effect on multicellular development (D. discoideum WT cells; 100 μM, 24 hours): later stages of development were delayed; development after extended incubation (D. discoideum WT cells; 100 μM, 36 hours): developed into fully mature fruiting bodies; lethality of high dose (D. discoideum WT cells; 100 μM, 36 hours): not lethal; rescue of developmental delay by exogenous ethylene (CEPA) (D. discoideum WT cells; MyA 100 μM plus CEPA): partially rescued; lowest concentration shown to have an effect on growth (A. thaliana; root and hypocotyl, 6 days, 24 h light): 0.025 mM; lowest effective concentration, times lower than AIB (A. thaliana; versus AIB): 20 times; lowest effective concentration, times lower than POA (A. thaliana; versus POA): 4 times; effect on unicellular growth (D. discoideum cells; 10 μM, P<0.05): significant reduction; effect on unicellular growth (D. discoideum cells; 100 μM): block in growth; IC50 (D. discoideum cells; Dictyostelium discoideum, wild type D. discoideum, secondary plot of normalised growth rate): 7.6 µM; reduction in potency in the ACO-mutant versus wild type [2]: four-fold; IC50 ([2]; Dictyostelium discoideum, ACO- D. discoideum cells): 29.9 µM; decrease in ethylene production (ethylene production; 12 hours, P=0.031): 39.5%; decrease in ethylene production (ethylene production; 36 hours, P=0.0025): 37.9%
CC1(C)CC(=O)C(C(=O)Cc2ccccc2)C(=O)C1 [ACOi-84-16-4, 5,5-dimethyl-2-(2-phenylacetyl)cyclohexane-1,3-dione]		8.2	6.9	comparable growth to the same treated with 10,000 μM AIB	potent efficacy	5	over 5400 fold	significant effect	comparable performance		
O=C(O)c1cnccn1 [POA, pyrazinecarboxylic acid, reference compound]	dose-dependent reduction		213							184	recovery after drought (barley seedlings; 500 μM): did not show positive result
Cc1cc(O)c(C(=O)/C=C/c2ccc(F)cc2)c(=O)o1 [ACOi-74-12-16, 3-[(2E)-3-(4-fluorophenyl)prop-2-enoyl]-4-hydroxy-6-methyl-2H-pyran-2-one]		0.79	1.02	comparable seedling height to the control sample which had been watered throughout the duration	potent efficacy	5	1580 fold	significant effect	comparable performance		recovery after drought versus untreated drought control (rye seedlings; 19 days recovery): improved recovery; recovery after drought (rye seedlings; 23 days recovery): continues to recover; recovery after drought versus untreated drought control (wheat seedlings): improved recovery; seedling height and mass versus drought control (wheat seedlings; FIG. 10): increased height and mass
CC(C)(N)C(=O)O [AIB, a-aminoisobutyric acid, reference compound]	dose-dependent reduction									4290	recovery after drought (barley seedlings; 2,000 μM): did slightly better; recovery after drought (barley seedlings; 10,000 μM): did better still; IC50 (A. thaliana; Root, 6 days, read-out: IC50 root extension): 1620 µM
